From patent publication US8835660B2, “Method for extracting organic compounds from aqueous mixtures” (The Regents of the University of California, priority 2010, dated 2014)
Where two headings read alike, the source gives them in different places.

Experiments:
[1] = Distribution of hydroxymethylfurfural and furfural between water and DEB phases; type: physicochemical; conditions: 25° C., single extraction; for Amount of HMF in DEB phase (g) (final in DEB phase) / Amount of furfural in DEB phase (g) (final in DEB phase): mass balance
Description: The amounts of hydroxymethylfurfural and furfural in water phase were measured
using HPLC (see above for details). […] Distribution coefficient is reported on the basis of HPLC results of aqueous phase and that of mass balance of both the phases. The amount of hydroxymethylfurfural in DEB phase may be quantified using gas chromatography. Water measurements of the separated DEB phase containing hydroxymethylfurfural may be carried out using a Karl Fischer apparatus.
Distribution coefficient is reported on the basis of HPLC results of aqueous phase and that of mass balance of both the phases. The amount of furfural in DEB phase may be quantified using gas chromatography. Water measurements of the separated DEB phase containing furfural may be carried out using a Karl Fischer apparatus.

[2] = cloud-point
[3] = for Water in DEB / AcOH in DEB / AcOH in water (final in DEB) / D = AcOH in DEB/AcOH in water: 25° C., single extraction
[4] = Distribution of ethanol and isobutanol between water and DEB phases; type: physicochemical; conditions: for Distribution coefficient of isobutanol (DEB/water) / Amount of iBuOH in water (final) / Amount of iBuOH in DEB (final) / Amount of EtOH in water (final) / D = conc. of EtOH in DEB/conc. of EtOH in water / Amount of EtOH in DEB (final): single extraction; for Amount of iBuOH in DEB (final) / Amount of EtOH in DEB (final): mass balance
Description: The amount of ethanol and isobutanol in water phase was measured using HPLC (see above for details). The concentrations of ethanol taken were: 8, 6, 3, 2, 1 and 0.5 wt %.
Distribution coefficient is reported on the basis of HPLC results of aqueous phase and that of mass balance of both the phases. Experiments are currently underway to determine the amount of ethanol, iso butanol in DEB phase. Gas chromatography will be used to quantify the amount of ethanol and isobutanol present in the DEB phase. Water measurements will be done using a Karl Fischer apparatus.
Here also, distribution coefficient is reported on the basis of HPLC results of aqueous phase and that of mass balance of both the phase.

[5] = 5.01 g DEB, 0.0132 g HMF initially in 5.01 g water
[6] = 5.01 g DEB, 0.0512 g HMF initially in 5.11 g water
[7] = 5.02 g DEB, 0.0251 g HMF initially in 5.03 g water
[8] = 4.98 g DEB, 0.0491 g furfural initially in 5.01 g water
[9] = 5.02 g DEB, 0.0242 g furfural initially in 4.98 g water
[10] = 5.11 g DEB, 0.0141 g furfural initially in 5.05 g water
[11] = 4.91 g DEB, 0.33 g AcOH initially in 4.1 g water
[12] = 5.8 g DEB, 0.17 g AcOH initially in 4.2 g water
[13] = 6.5 g DEB, 0.07 g AcOH initially in 4.3 g water
[14] = 4.76 g DEB, 0.26 g iBuOH initially in 4.74 g water
[15] = 4.88 g DEB, 0.13 g iBuOH initially in 4.89 g water
[16] = 4.93 g DEB, 0.071 g iBuOH initially in 4.92 g water
[17] = 5.08 g DEB, 0.028 g iBuOH initially in 5.03 g water
[18] = 4.63 g DEB, 0.99 g EtOH initially in 4.62 g water
[19] = 4.71 g DEB, 0.31 g EtOH initially in 4.70 g water
[20] = 4.85 g DEB, 0.16 g EtOH initially in 4.86 g water
[21] = 4.92 g DEB, 0.11 g EtOH initially in 4.89 g water
[22] = 4.97 g DEB, 0.06 g EtOH initially in 4.98 g water
[23] = 5.02 g DEB, 0.03 g EtOH initially in 5.03 g water

## O=Cc1ccc(CO)o1 [hydroxymethylfurfural]
[1]; [5]
  Amount of HMF in water phase (g) (final): 0.0083 g
  D = conc. of HMF in DEB/conc. of HMF in water: 0.61
  Amount of HMF in DEB phase (g) (final in DEB phase): 0.0050 g
[1]; [6]
  Amount of HMF in water phase (g) (final): 0.0321 g
  D = conc. of HMF in DEB/conc. of HMF in water: 0.59
  Amount of HMF in DEB phase (g) (final in DEB phase): 0.0191 g
[1]; [7]
  Amount of HMF in water phase (g) (final): 0.0161 g
  D = conc. of HMF in DEB/conc. of HMF in water: 0.54
  Amount of HMF in DEB phase (g) (final in DEB phase): 0.0088 g

## O=Cc1ccco1 [furfural]
[1]; [8]
  Amount of furfural in water phase (g) (final): 0.0249 g
  D = conc. of furfural in DEB/conc. of furfural in water: 0.98
  Amount of furfural in DEB phase (g) (final in DEB phase): 0.0242 g
[1]; [9]
  Amount of furfural in water phase (g) (final): 0.0161 g
  D = conc. of furfural in DEB/conc. of furfural in water: 0.91
  Amount of furfural in DEB phase (g) (final in DEB phase): 0.0088 g
[1]; [10]
  Amount of furfural in water phase (g) (final): 0.0069 g
  D = conc. of furfural in DEB/conc. of furfural in water: 1.03
  Amount of furfural in DEB phase (g) (final in DEB phase): 0.0071 g

## CCCCOCCOCCOCCCC [DEB, diethylene glycol dibutyl ether]
[2]
  DEB solubility in water: less than 10 ppm

## water
[3]; [11]
  Water in DEB: 300 µg
[3]; [12]
  Water in DEB: 100 µg
[3]; [13]
  Water in DEB: 90 µg
[3]; after contact experiment with acetic acid solutions
  water content in the DEB phase: less than 300 ppm

## CC(C)CO [isobutanol]
[4]; 5, 3, 2, and 1 wt % of isobutanol
  measured distribution coefficients: 2.5-3.5
[4]; DEB and water phases in equilibrium
  concentration in DEB relative to concentration in water at equilibrium: 2-3 times
[4]; [14]
  Distribution coefficient of isobutanol (DEB/water): 2.71
  Amount of iBuOH in water (final): 0.07 grams
  Amount of iBuOH in DEB (final): 0.19 grams
[4]; [15]
  Distribution coefficient of isobutanol (DEB/water): 3.33
  Amount of iBuOH in water (final): 0.03 grams
  Amount of iBuOH in DEB (final): 0.10 grams
[4]; [16]
  Distribution coefficient of isobutanol (DEB/water): 2.72
  Amount of iBuOH in water (final): 0.018 grams
  Amount of iBuOH in DEB (final): 0.053 grams
[4]; [17]
  Distribution coefficient of isobutanol (DEB/water): 3.59
  Amount of iBuOH in water (final): 0.0061 grams
  Amount of iBuOH in DEB (final): 0.0219 grams

## CC(=O)O [acetic acid]
[3]; [11]
  AcOH in DEB: 0.171 grams
  AcOH in water (final in DEB): 0.163 grams
  D = AcOH in DEB/AcOH in water: 1.1
[3]; [12]
  AcOH in DEB: 0.088 grams
  AcOH in water (final in DEB): 0.082 grams
  D = AcOH in DEB/AcOH in water: 1.08
[3]; [13]
  AcOH in DEB: 0.033 grams
  AcOH in water (final in DEB): 0.034 grams
  D = AcOH in DEB/AcOH in water: 0.98

## CCO [ethanol]
[4]; [18]
  Amount of EtOH in water (final): 0.51 grams
  D = conc. of EtOH in DEB/conc. of EtOH in water: 0.94
  Amount of EtOH in DEB (final): 0.48 grams
[4]; [19]
  Amount of EtOH in water (final): 0.15 grams
  D = conc. of EtOH in DEB/conc. of EtOH in water: 1.06
  Amount of EtOH in DEB (final): 0.16 grams
[4]; [20]
  Amount of EtOH in water (final): 0.073 grams
  D = conc. of EtOH in DEB/conc. of EtOH in water: 1.2
  Amount of EtOH in DEB (final): 0.087 grams
[4]; [21]
  Amount of EtOH in water (final): 0.052 grams
  D = conc. of EtOH in DEB/conc. of EtOH in water: 1.11
  Amount of EtOH in DEB (final): 0.058 grams
[4]; [22]
  Amount of EtOH in water (final): 0.031 grams
  D = conc. of EtOH in DEB/conc. of EtOH in water: 0.93
  Amount of EtOH in DEB (final): 0.029 grams
[4]; [23]
  Amount of EtOH in water (final): 0.014 grams
  D = conc. of EtOH in DEB/conc. of EtOH in water: 1.16
  Amount of EtOH in DEB (final): 0.016 grams
